Data on 24 compounds can be found in patent US20180170904A1, “PYRIDIN-3-YL ACETIC ACID DERIVATIVES AS INHIBITORS OF HUMAN IMMUNODEFICIENCY VIRUS REPLICATION” (priority 2015, published 2018).

Molecules are shown by their SMILES. pEC50: −log10 of the molar value.

The subject of the first test is NL-RLuc virus (recombinant NL4-3 proviral clone with Renilla Luciferase gene). The experiment in a line: Inhibition of HIV replication (NL-RLuc reporter virus in MT-2 cells). Type of test: cell-based. As to conditions: Renilla, NL43, 120 h, read-out: Activity. The text has this: Inhibition of HIV replication: A recombinant NL-RLuc proviral clone was constructed in which a section of the nef gene from NL4-3 was replaced with the Renilla Luciferase gene. This virus is fully infectious and can undergo multiple cycles of replication in cell culture. In addition, the luciferous reporter provides a simple and easy method for quantitating the extent of virus growth and consequently, the antiviral activity of test compounds. The plasmid pNLRLuc contains the proviral NL-Rluc DNA cloned into pUC18 at the PvuII site. The NL-RLuc virus was prepared by transfection of 293T cells with the plasmid pNLRLuc. Transfections were performed using the LipofectAMINE PLUS kit from Invitrogen (Carlsbad, Calif.) according to the manufacturer and the virus generated was titered in MT-2 cells. For susceptibility analyses, the titrated virus was used to infect MT-2 cells in the presence of compound, and after 5 days of incubation, cells were processed and quantitated for virus growth by the amount of expressed luciferase. Assay media was RPMI 1640 supplemented with 10% heat inactivated fetal bovine serum (FBS), 100 units/ml penicillin G/100 units/ml streptomycin, 10 mM HEPES buffer pH 7.55 and 2 mM L-glutamine. The results from at least 2 experiments were used to calculate the EC50 values. Luciferase was quantitated using the Dual Luciferase kit from Promega (Madison, Wis.). Susceptibility of viruses to compounds was determined by incubation in the presence of serial dilutions of the compound. The 50% effective concentration (EC50) was calculated by using the exponential form of the median effect equation where (Fa)=1/[1+(ED50/drug conc.)^m] (Johnson V A, Byington R T. Infectivity Assay. In Techniques in HIV Research. ed. Aldovini A, Walker B D. 71-76. New York: Stockton Press.1990). Activity equal to A refers to a compound having an EC50≤100 nM, while B and C denote compounds having an EC50 between 100 nM and 1 uM (B) or >1 uM (C).
Consider `Cc1nc(C)c([C@H](OC(C)(C)C)C(=O)O)c(N2CCC(C)(C)CC2)c1-c1ccc(S(=O)(=O)NC2CC2)cc1` [Example 35, (S)-2-(tert-Butoxy)-2-(5-(4-(N-cyclopropylsulfamoyl)phenyl)-4-(4,4-dimethylpiperidin-1-yl)-2,6-dimethylpyridin-3-yl)acetic acid], for which the pEC50 was 6.00 to 7.00.

As to `Cc1nc(C)c([C@H](OC(C)(C)C)C(=O)O)c(N2CCC(C)(C)CC2)c1-c1ccc(C(=O)NCCc2ccc(F)cc2)cc1` [Example 2, (S)-2-(tert-Butoxy)-2-(4-(4,4-dimethylpiperidin-1-yl)-5-(4-((4-fluorophenethyl)carbamoyl)phenyl)-2,6-dimethylpyridin-3-yl)acetic acid], the pEC50 was greater than 7.00.

In the case of `COc1cccc(-c2ccc(-c3c(C)nc(C)c([C@H](OC(C)(C)C)C(=O)O)c3N3CCC(C)(C)CC3)cc2)c1` [Example 21, (S)-2-(tert-Butoxy)-2-(4-(4,4-dimethylpiperidin-1-yl)-5-(3′-methoxy-[1,1′-biphenyl]-4-yl)-2,6-dimethylpyridin-3-yl)acetic acid], the pEC50 is greater than 7.00.

For `Cc1nc(C)c([C@H](OC(C)(C)C)C(=O)O)c(N2CCC(C)(C)CC2)c1-c1ccc(NCCc2ccc(F)cc2)cc1` [Example 73, (S)-2-(tert-Butoxy)-2-(4-(4,4-dimethylpiperidin-1-yl)-5-(4-((4-fluorophenethyl)amino)phenyl)-2,6-dimethylpyridin-3-yl)acetic acid], the pEC50 is greater than 7.00.

As to `Cc1nc(C)c([C@H](OC(C)(C)C)C(=O)O)c(N2CCC(C)(C)CC2)c1-c1ccc(SCCC(C)C)cc1` [Example 23, (S)-2-(tert-Butoxy)-2-(4-(4,4-dimethylpiperidin-1-yl)-5-(4-(isopentylthio)phenyl)-2,6-dimethylpyridin-3-yl)acetic acid], the pEC50 is greater than 7.00.

`CCOc1cc(F)cc(F)c1CNC(=O)c1ccc(-c2c(C)nc(C)c([C@H](OC(C)(C)C)C(=O)O)c2N2CCC(C)(C)CC2)cc1` [Example 67, (S)-2-(tert-Butoxy)-2-(4-(4,4-dimethylpiperidin-1-yl)-5-(4-((2-ethoxy-4,6-difluorobenzyl)carbamoyl)phenyl)-2,6-dimethylpyridin-3-yl)acetic acid]: the pEC50 is greater than 7.00.

With `Cc1nc(C)c([C@H](OC(C)(C)C)C(=O)O)c(N2CCC(C)(C)CC2)c1-c1ccc(C(O)CCc2ccc(F)cc2)cc1` (stereo partly drawn) [Example 51, (2S)-2-(tert-Butoxy)-2-(4-(4,4-dimethylpiperidin-1-yl)-5-(4-(3-(4-fluorophenyl)-1-hydroxypropyl)phenyl)-2,6-dimethylpyridin-3-yl)acetic acid], the pEC50 is greater than 7.00.

As for `Cc1nc(C)c([C@H](OC(C)(C)C)C(=O)O)c(N2CCC(C)(C)CC2)c1-c1ccc(NC(=O)Cc2ccc(F)cc2)cc1` [Example 72, (S)-2-(tert-Butoxy)-2-(4-(4,4-dimethylpiperidin-1-yl)-5-(4-(2-(4-fluorophenyl)acetamido)phenyl)-2,6-dimethylpyridin-3-yl)acetic acid], the pEC50 was greater than 7.00.

Regarding `Cc1nc(C)c([C@H](OC(C)(C)C)C(=O)O)c(N2CCC(C)(C)CC2)c1-c1cncnc1` [Example 28, (S)-2-(tert-Butoxy)-2-(4-(4,4-dimethylpiperidin-1-yl)-2,6-dimethyl-5-(pyrimidin-5-yl)pyridin-3-yl)acetic acid], the pEC50 was 6.00 to 7.00.

As for `Cc1nc(C)c([C@H](OC(C)(C)C)C(=O)O)c(N2CCC(C3CC3)C2)c1-c1ccc(C(=O)NCc2ccccc2)cc1` (stereo partly drawn) [Example 55, (2S)-2-(5-(4-(Benzylcarbamoyl)phenyl)-4-(3-cyclopropylpyrrolidin-1-yl)-2,6-dimethylpyridin-3-yl)-2-(tert-butoxy)acetic acid], the pEC50 is greater than 7.00.

Regarding `Cc1nc(C)c([C@H](OC(C)(C)C)C(=O)O)c(N2CCC(C)(C)CC2)c1-c1cc(F)c(F)c(F)c1` [Example 33, (S)-2-(tert-Butoxy)-2-(4-(4,4-dimethylpiperidin-1-yl)-2,6-dimethyl-5-(3,4,5-trifluorophenyl)pyridin-3-yl)acetic acid], the pEC50 was greater than 7.00.

Take `Cc1nc(C)c([C@H](OC(C)(C)C)C(=O)O)c(N2CCC(C)(C)CC2)c1-c1ccc(CC(N)=O)cc1` [Example 26, (S)-2-(5-(4-(2-Amino-2-oxoethyl)phenyl)-4-(4,4-dimethylpiperidin-1-yl)-2,6-dimethylpyridin-3-yl)-2-(tert-butoxy)acetic acid]: the pEC50 is 6.00 to 7.00.

Turning to `Cc1nc(C)c([C@H](OC(C)(C)C)C(=O)O)c(N2CCC(C)(C)CC2)c1-c1cccc(C(C)C)c1` [Example 40, (S)-2-(tert-Butoxy)-2-(4-(4,4-dimethylpiperidin-1-yl)-5-(3-isopropylphenyl)-2,6-dimethylpyridin-3-yl)acetic acid], the pEC50 is greater than 7.00.

With `CSc1ncc(-c2c(C)nc(C)c([C@H](OC(C)(C)C)C(=O)O)c2N2CCC(C)(C)CC2)cn1` [Example 42, (S)-2-(tert-Butoxy)-2-(4-(4,4-dimethylpiperidin-1-yl)-2,6-dimethyl-5-(2-(methylthio)pyrimidin-5-yl)pyridin-3-yl)acetic acid], the pEC50 was greater than 7.00.

For the compound `Cc1nc(C)c([C@H](OC(C)(C)C)C(=O)O)c(N2CCC(C)(C)CC2)c1-c1ccc(N(CCc2ccc(F)cc2)C(O)Cc2ccc(F)cc2)cc1` (stereo partly drawn) [Example 74, (2S)-2-(tert-Butoxy)-2-(4-(4,4-dimethylpiperidin-1-yl)-5-(4-((4-fluorophenethyl)(2-(4-fluorophenyl)-1-hydroxyethyl)amino)phenyl)-2,6-dimethylpyridin-3-yl)acetic acid], the pEC50 was greater than 7.00.

As to `Cc1nc(C)c([C@H](OC(C)(C)C)C(=O)O)c(N2CCC(C)(C)CC2)c1-c1ccc(-c2ccccc2)cc1` [Example 8, (S)-2-(5-([1,1′-Biphenyl]-4-yl)-4-(4,4-dimethylpiperidin-1-yl)-2,6-dimethylpyridin-3-yl)-2-(tert-butoxy)acetic acid], the pEC50 was greater than 7.00.

`Cc1nc(C)c([C@H](OC(C)(C)C)C(=O)O)c(N2CCC(C)(C#N)CC2)c1-c1ccc(C(=O)NCc2ccccc2)cc1` [Example 61, (S)-2-(5-(4-(Benzylcarbamoyl)phenyl)-4-(4-cyano-4-methylpiperidin-1-yl)-2,6-dimethylpyridin-3-yl)-2-(tert-butoxy)acetic acid]: the pEC50 is 6.00 to 7.00.

For `Cc1nc(C)c([C@H](OC(C)(C)C)C(=O)O)c(N2CCC(C)(C)CC2)c1-c1ccc(-c2ccc(Cl)cc2)cc1` [Example 11, (S)-2-(tert-Butoxy)-2-(5-(4′-chloro-[1,1′-biphenyl]-4-yl)-4-(4,4-dimethylpiperidin-1-yl)-2,6-dimethylpyridin-3-yl)acetic acid], the pEC50 was 6.00 to 7.00.

Turning to `Cc1nc(C)c([C@H](OC(C)(C)C)C(=O)O)c(N2CCC(C)(C)CC2)c1-c1ccc(Cc2ccccc2)cc1` [Example 15, (S)-2-(5-(4-Benzylphenyl)-4-(4,4-dimethylpiperidin-1-yl)-2,6-dimethylpyridin-3-yl)-2-(tert-butoxy)acetic acid], the pEC50 is greater than 7.00.

Regarding `CCOC(=O)Nc1ccc(-c2c(C)nc(C)c([C@H](OC(C)(C)C)C(=O)O)c2N2CCC(C)(C)CC2)cc1` [Example 71, (S)-2-(tert-Butoxy)-2-(4-(4,4-dimethylpiperidin-1-yl)-5-(4-((ethoxycarbonyl)amino)phenyl)-2,6-dimethylpyridin-3-yl)acetic acid], the pEC50 is greater than 7.00.

With `Cc1nc(C)c([C@H](OC(C)(C)C)C(=O)O)c(N2CCC(C)(C)CC2)c1-c1ccc(/C=C/C#N)cc1` [Example 49, (S,E)-2-(tert-Butoxy)-2-(5-(4-(2-cyanovinyl)phenyl)-4-(4,4-dimethylpiperidin-1-yl)-2,6-dimethylpyridin-3-yl)acetic acid], the pEC50 was 6.00 to 7.00.

For `Cc1nc(C)c([C@H](OC(C)(C)C)C(=O)O)c(N2CCC(C)(C)CC2)c1-c1ccc(C(=O)NC2CC2)cc1` [Example 43, (S)-2-(tert-Butoxy)-2-(5-(4-(cyclopropylcarbamoyl)phenyl)-4-(4,4-dimethylpiperidin-1-yl)-2,6-dimethylpyridin-3-yl)acetic acid], the pEC50 is greater than 7.00.

`Cc1nc(C)c([C@H](OC(C)(C)C)C(=O)O)c(N2CCC(C)(C)CC2)c1-c1ccc(C(C)(C)C#N)cc1` [Example 36, (S)-2-(tert-Butoxy)-2-(5-(4-(2-cyanopropan-2-yl)phenyl)-4-(4,4-dimethylpiperidin-1-yl)-2,6-dimethylpyridin-3-yl)acetic acid]: the pEC50 was greater than 7.00.

For the compound `Cc1nc(C)c([C@H](OC(C)(C)C)C(=O)O)c(N2CCC(C)(C)CC2)c1-c1ccc(N(C)CCc2ccc(F)cc2)cc1` [Example 76, (S)-2-(tert-Butoxy)-2-(4-(4,4-dimethylpiperidin-1-yl)-5-(4-((4-fluorophenethyl)(methyl)amino)phenyl)-2,6-dimethylpyridin-3-yl)acetic acid], the pEC50 was greater than 7.00.

The same test, now with this note: Renilla, NL43, 120 h, read-out: EC50 μM.
`Cc1nc(C)c([C@H](OC(C)(C)C)C(=O)O)c(N2CCC(C3CC3)C2)c1-c1ccc(C(=O)NCc2ccccc2)cc1` (stereo partly drawn) [Example 55, (2S)-2-(5-(4-(Benzylcarbamoyl)phenyl)-4-(3-cyclopropylpyrrolidin-1-yl)-2,6-dimethylpyridin-3-yl)-2-(tert-butoxy)acetic acid]: the EC50 was found to be 0.053 µM.

On to `Cc1nc(C)c([C@H](OC(C)(C)C)C(=O)O)c(N2CCC(C)(C)CC2)c1-c1ccc(CC(N)=O)cc1` [Example 26, (S)-2-(5-(4-(2-Amino-2-oxoethyl)phenyl)-4-(4,4-dimethylpiperidin-1-yl)-2,6-dimethylpyridin-3-yl)-2-(tert-butoxy)acetic acid], for which the EC50 turned out to be 0.373 µM.

In the case of `Cc1nc(C)c([C@H](OC(C)(C)C)C(=O)O)c(N2CCC(C)(C)CC2)c1-c1ccc(-c2ccccc2)cc1` [Example 8, (S)-2-(5-([1,1′-Biphenyl]-4-yl)-4-(4,4-dimethylpiperidin-1-yl)-2,6-dimethylpyridin-3-yl)-2-(tert-butoxy)acetic acid], the concentration for a half-maximal effect (EC50) was 0.031 µM.

Consider `Cc1nc(C)c([C@H](OC(C)(C)C)C(=O)O)c(N2CCC(C)(C)CC2)c1-c1ccc(-c2ccc(Cl)cc2)cc1` [Example 11, (S)-2-(tert-Butoxy)-2-(5-(4′-chloro-[1,1′-biphenyl]-4-yl)-4-(4,4-dimethylpiperidin-1-yl)-2,6-dimethylpyridin-3-yl)acetic acid], for which the half-maximal effective concentration (EC50) came to 0.135 µM.
